Values of other authors, collected in patent publication US6642378B1, “Process for the synthesis of beta-lactam derivatives” (Antibioticos S.p.A., priority 1999, dated 2003).
Read-outs that look alike come from different tables or passages of the source.

Assays:
[1] = data from MSDS (Material Safety Data Sheet)—OHS
[2] = oral, data from MSDS (Material Safety Data Sheet)—OHS

Row | Compound | Flash point [1] [°C] | oral DL50 rat (rat; [2]) [mg/kg] | oral DL50 rat (rat; in vivo, po) [mg/kg]
1 | CC(C)=O [Acetone] | −18.0 | 5800 | –
2 | CCOC(=O)OCC [Diethylcarbonate] | 33.0 | – | 15000
3 | COC(=O)OC [Dimethylcarbonate] | 21.7 | – | 13000
4 | CCOC(C)=O [Ethyl acetate] | −4.0 | 5620 | –
5 | COC(C)=O [Methyl acetate] | −10.0 | – | 5480
6 | C1CCOC1 [Tetrahydrofuran] | −17.2 | 2816 | –
